How the values were obtained:
PD patients = settings: cited from earlier work
PIF mRNA = PIF mRNA expression after MPP+ treatment, northern blot; type: cell-based; settings: MPP+ treatment 12 hr, enriched rat DAergic neuron cultures, FIG. 12A
From the text: (§1) The exact molecular mechanisms leading to the pathophysiology of PD are not well understood. MPP^+, a mitochondrial complex I inhibitor, produces PD-type symptoms in humans and laboratory animals and has been used to investigate PD pathogenesis^12,13. MPP^+, the ultimate metabolite of MPTP, is taken up into DAergic neurons where it accumulates in mitochondria and works to inhibit complex I activity. Although the mechanism of MPP^+-induced neurotoxicity is not fully understood, there is increasing evidence supporting the involvement of reactive oxygen species (ROS)^14. […]
(§2) For these studies enriched mesecephalic DAergic cultures were obtained from E16 Sprague Dawley embryos and cultured for 10 days in poly 1-ornithine coated culture dish at a density of 0.5×10^6 cells per well and maintained in Neurobasal medium with B-27 supplement and 0.5 mM glutamine, as previously described^16. In A, following MPP^+ treatment for 12 hr, total RNA was extracted from the neuronal cultures using Ultraspec RNA (Biotecx) and PIF mRNA expression assessed by northern blot hybridization assay using ^32p labeled hPIF cDNA^17 and quantified by phospho-imaging (Molecular Dynamics). […] Non-specific transport was determined in parallel assays conducted in the presence of 1 uM GBR12909 and incorporated [^3H]-dopamine was extracted with NaOH (0.5M) and quantified by liquid scintillation spectrometry

substantia nigra = assay: In vivo MRM T2-weighted imaging of substantia nigra after MPTP lesion; set-up: species or system mouse
From the text: The goal of this study was to develop a non-invasive methodology for functionally assessing the predicative role of novel protein biomarkers in CSF (and serum) for experimental MPTP SN neurodegeneration in pre-clinical models of PD (Aim 4) using MRM imaging technology in collaboration with Dr. Cheuk Tang (Collaborator, Imaging Sciences Laboratory, Dept. Neuroradiology) and Dr. Patrick Hof (Collaborator, Advance Imaging Program, Center for Neurobiology), of Mount Sinai Medical School. The studies are based on the principle that increased iron content found in SN of PD and MPTP models of PD^29-31 may be an index of SN neurodegeneration, which can be monitored by MRM^32,33, longitudinally. Given that MRM measurement is highly sensitive to iron content in SN dopaminergic cells, we hypothesized that MRM may offer a means for non-invasive evaluation of SN neurodegeneration. In exciting ongoing studies, using a 9.4 Tesla micro MRM imager (Bruker Instrument) we collected matched consecutive rostro-caudal T2-weighted in vivo MRM images of the whole brain from the same mouse, prior to and four-days after SN MPTP lesion. […] As predicted, this observation of hypo-intense MRM measurements in the SN post-lesioning is consistent with an elevation in iron content in the degenerating nigrostriatal DAergic neurons. […]

[1] = test system: substantia nigra DAergic neurons; type: in vivo, mouse
Procedure: In this study SN DAergic lesions in male C57B6/SJ mice were obtained by i.p. MPTP injection (four consecutive injections at 2 hr intervals; 20 mg/kg/body weight (BW) per injection 27); saline injected mice were used as a control (n=4 per group). Four days following MPTP (or saline) injection, mice were anesthetized using a combination of ketamine (50 mg/kg BW) and xylazine (5 mg/kg BW), CSF was then collected from cisterna magna, as previously described^28. Immediately after CSF collection (4 days post-lesioning), mice were sacrificed by cervical dislocation and the brain was collected, preserved under cryoprotection and stored at −80° C. 1 μl of CSF from each animal was analyzed by SELDI technology as described in FIG. 1. […] In panel 3B, number of thyroxine hydroxylase (TH)-immunoreactive DAergic neurons in the SN counted stereologically, with data are expressed as mean+SEM for MPTP and saline groups. In panels A and B, n=4 per group; *P<0.05.

[2] = test system: SY5Y neuroblastoma catecholaminergic cells; assay: MPP+ toxicity in SY5Y cells, MTT assay; type: cell-based; settings: 24 hr after exposure to MPP+; dose dependent; FIG. 9
Procedure: The PD biomarker DCD-1 promotes neurotoxicity in SY5Y cells in a dose dependent manner. In this study cell toxicity in SY5Y cells was assessed 24 hr after exposure to MPP+ using methylthiazoletetrazolium [3 (4,5-dimethylthiazol-2-yl)-2,5-diphenyltetrazolium bromide] (MTT) calorimetric assay, (an index or altered energy metabolism). Values represent Means+SEM of determinations from 2 separate cultures, n=3 cultures chambers per group * P<0.05 between MPP+ and MPP+ and DCD-1 treatment (see FIG. 9).

[3] = biological target: PIF cell surface receptor (DCD receptor) (human); assay: Scatchard analysis of AP-PIF binding to human SH-SY5Y neuronal cells
[4] = test system: rat mesencephalic DAergic neuron cultures; assay: MPP+-mediated neurotoxicity in enriched rat mesencephalic DAergic neuron cultures, [3H]-dopamine uptake assay; type: cell-based
From the text: as §1, §2

α-synuclein = assay: alpha-synuclein immunoblot in enriched DAergic neuron cultures after hrPIF treatment; type: cell-based, rat
From the text: Because of the recent evidence showing increased α-synuclein expression increases vulnerability to MPP/MPTP^19, we decided to explore the possibility that PIF might have promoted DAergic neurodgeneration through mechanisms that involve α-synuclein expression. […] This evidence is also consistent with work in Drosophila where overexpression of α-synuclein leads to DAergic toxicity^22. In these studies (see FIG. 13) 10 days old enriched […] cultures were obtained as discussed in FIG. 12. In A, following treatment with increasing concentrations of hrPIF, cultures lysed in each well using SDS-PAGE (5 mM Tris-HCl, 2% SDS, 0.1 M DTT, 0.001% Bromphenol blue, 10% glycerol, pH6.8) sample buffer. […] After 5 min incubation at RT in buffer, the Triton X-100 soluble fraction was gently collected from the-dish-. -The remaining Triton-insoluble material was gently rinsed once with ice cold PBS, and collected in buffer N (0.1 M Na2CO3, pH 11.5 with protease inhibitor cocktails). In C, the Triton-insoluble synuclein fraction was collected in the pellet by centrifugation at 16,000 g for 10 min and dissolved in 1×SDS buffer. Immunoblots used monoclonal anti α-synuclein antibody (1:1000, BD Bioscience) and immunoreactivities were visualized densitometrically.

N[C@@H](Cc1ccc(O)c(O)c1)C(=O)O [L-dopa]
extension of lifespan of PD patients, on average (PD patients): one

C[n+]1ccc(-c2ccccc2)cc1 [MPP^+, 1-Methyl-4-phenylpyridinium ion]
PIF mRNA expression (PIF mRNA): dose dependently induced

CN1CC=C(c2ccccc2)CC1 [MPTP]
decrease in SN T2 density / T2-weighted values vs pre-lesion (substantia nigra; after MPTP lesion, n=2, 9.4 Tesla MRM): approximately 25% | average normalized SN T2 density (SN T2 density/temporal T2 density) (substantia nigra; post-MPTP lesioning, N=2 animals): 0.6904 ± 0.05 | loss of tyrosine hydroxylase (TH) immunopositive neurons ([1]; MPTP i.p. 4 x 20 mg/kg, 4 days post-lesioning, stereological count): approximately 25% | 4.6 kDa anionic DCD-like protein in CSF ([1]; mouse, in vivo): induced

DCD-1: human recombinant DCD-1, aa 63-109 of dermcidin precursor, 4.7 kDa (SEQ ID NO:1) (SSLLEKGLDGAKKAVGGLGKLGKDAVEDLESVGKGAVHDVKDVLDSV; homo sapiens)
effect on MPP+ mediated death (MTT) [2]: potentiates MPP+ mediated death

N-terminal alkaline phosphatase (AP) C-terminal PIF (DCD) precursor protein fusion protein (from UniProt P81605 20-110) (ligand)
Kd [3]: 51 nM | maximum binding concentration (receptors per cell) (PIF receptors per cell) [3]: 30000

B1: hrPIF: human recombinant full length dermicidin, His-tagged, expressed in M15 bacterial cells (protein)
chain: YDPEAASAPGSGNPCHEASAAQKENAGEDPGLARQAPKPRKQRSSLLEKGLDGAKKAVGGLGKLGKDAVEDLESVGKGAVHDVKDVLDSVL
modifications: left off: small tags and cut ends
notes: human recombinant full length dermicidin, His-tagged, expressed in M15 bacterial cells
potentiation of MPP+-mediated neurotoxicity, dopamine uptake assay ([4]; exogenous hrPIF with MPP+, 12 hours, FIG. 12B): ~1.5 fold | potentiation of MPP+-induced neurotoxicity ([4]; exogenous hrPIF, rat mesencephalic DAergic neuron cultures, summary statement): ~2 fold | soluble oligomeric α-synuclein protofibrils (α-synuclein; Triton X-100 soluble fraction, FIG. 13B): accumulation | aggregated α-synuclein (α-synuclein; Triton-insoluble fraction, FIG. 13C): not aggregated α-synuclein | expression of total α-synuclein (α-synuclein; hrPIF treatment, FIG. 13A): increased expression

Source: patent publication US20050202508A1, “Biomarker for Parkinson's disease” (priority 2003, published 2005)
